Where two headings read alike, the source gives them in different places.
How the values were obtained:
[1] = test system: DG-75 Burkitt lymphoma cell line (EBV−, chemoresistant); assay: cells; details: Homo sapiens, DG-75, 48 h
[2] = test system: MUTU-1 Burkitt lymphoma cell line (EBV+); assay: cells; details: Mutu-1, 24 h; for IC50: read-out: IC50 MUTU-I 24 h
[3] = read-out: DG-75 Cell Viability % 1 μM, 1 μM, 48 h
[4] = read-out: DG-75 Cell Viability % 10 μM, 10 μM, 48 h
[5] = read-out: MUTU-1 Cell Viability % 1 μM, 1 μM, 24 h
[6] = read-out: MUTU-1 Cell Viability % 10 μM, 10 μM, 24 h

With `O=[N+]([O-])CCC12c3ccccc3C(c3ccccc31)c1ccccc12` [Compound 20e, 9-(2-Nitroethyl)-9,10-dihydro-9,10-[1,2]benzenoanthracene] the viability at 1 µM [1, 3] was 97.6%, the viability at 10 µM [1, 4] was 97.2% and the viability at 1 µM [2, 5] was 98.9%. The viability at 10 µM [2, 6] was 111% and the melting point was 185 to 187 °C.

Work on `C/C(=C\C12c3ccccc3C(Cl)(c3ccccc31)C1C(=O)NC(=O)C12)[N+](=O)[O-]` (stereo not shown) [Compound 13k, (E)-9-Chloro-10-(2-nitroprop-1-en-1-yl)-9,10-dihydro-9,10-[3,4]epipyrroloanthracene-12,14-dione] yielded a viability at 1 µM [1, 3] of 78.2%, a viability at 10 µM [1, 4] of 101% and a viability at 1 µM [2, 5] of 83.3%. It also gave a viability at 10 µM [2, 6] of 51.6% and a melting point of 295 to 297 °C.

With `CC(=O)Oc1cccc(N2C(=O)C3C4c5ccccc5C(/C=C/[N+](=O)[O-])(c5ccccc54)C3C2=O)c1` (stereo not shown) [Compound 16m, (E)-3-(9-(2-Nitrovinyl)-12,14-dioxo-9,10-dihydro-9,10-[3,4]epipyrroloanthracen-13-yl)phenyl acetate] the viability at 1 µM [1, 3] was 35.9%, the viability at 10 µM [1, 4] was 0% and the IC50 [2] was 230 nM. It also gave a viability at 1 µM [2, 5] of 2%, a viability at 10 µM [2, 6] of 1.2% and a melting point of 246 to 248 °C.

`O=C1OC(=O)C2C1C1c3ccccc3C2(O)c2ccccc21` (stereo not shown) [Compound 21j] showed a viability at 1 µM [1, 3] of 68%, a viability at 10 µM [1, 4] of 93% and a viability at 1 µM [2, 5] of 103%. It also gave a viability at 10 µM [2, 6] of 100%.

`N/N=C/C12c3ccccc3C(c3ccccc31)C1C(=O)NC(=O)C12` (stereo not shown) [Compound 23g, (E)-9-(Hydrazonomethyl)-9,10-dihydro-9,10-[3,4]epipyrroloanthracene-12,14-dione] gave a viability at 1 µM [1, 3] of 78.1%, a viability at 10 µM [1, 4] of 55% and a viability at 1 µM [2, 5] of 95.2%. For the same compound, the viability at 10 µM [2, 6] was 101% and the melting point was 245 to 247 °C.

With `CC/C(=C\C12c3ccccc3C(Cl)(c3ccccc31)C1C(=O)OC(=O)C12)[N+](=O)[O-]` (stereo not shown) [Compound 13f, (E)-9-Chloro-10-(2-nitrobut-1-en-1-yl)-9,10-dihydro-9,10-[3,4]furanoanthracene-12,14-dione] the viability at 1 µM [1, 3] was 79.9%, the viability at 10 µM [1, 4] was 95.1% and the viability at 1 µM [2, 5] was 85.3%. The viability at 10 µM [2, 6] was 91.6% and the melting point was 259 to 263 °C.

`O=C1NC(=O)C2C3c4ccccc4C(c4ccccc43)C12` (stereo not shown) [Compound 21b] gave a viability at 1 µM [1, 3] of 82%, a viability at 10 µM [1, 4] of 74.5% and a viability at 1 µM [2, 5] of 104%. For the same compound, the viability at 10 µM [2, 6] was 92.8% and the melting point was 299 to 300 °C.

`C/C(=C\C12c3ccccc3C(c3ccccc31)C1C(=O)NC(=O)C12)[N+](=O)[O-]` (stereo not shown) [Compound 13h, (E)-9-(2-Nitroprop-1-en-1-yl)-9,10-dihydro-9,10-[3,4]epipyrroloanthracene-12,14-dione] gave a viability at 1 µM [1, 3] of 106%, a viability at 10 µM [1, 4] of 101% and a viability at 1 µM [2, 5] of 99.7%. For the same compound, the viability at 10 µM [2, 6] was 82.6% and the melting point was 296 to 300 °C.

For `COc1cc(OC)cc(N2C(=O)C3C4c5ccccc5C(/C=C/[N+](=O)[O-])(c5ccccc54)C3C2=O)c1` (stereo not shown) [Compound 16j, (E)-13-(3,5-Dimethoxyphenyl)-9-(2-nitrovinyl)-9,10-dihydro-9,10-[3,4]epipyrroloanthracene-12,14-dione], the viability at 1 µM [1, 3] was 33.5%, the viability at 10 µM [1, 4] was 0.16% and the IC50 [2] was 260 nM. The viability at 1 µM [2, 5] was 4.2%, the viability at 10 µM [2, 6] was 5.4% and the melting point was 268 to 271 °C.

In the case of `O=C1C2C3c4ccccc4C(/C=C/[N+](=O)[O-])(c4ccccc43)C2C(=O)N1c1ccc(F)cc1` (stereo not shown) [Compound 16e, (E)-13-(4-Fluorophenyl)-9-(2-nitrovinyl)-9,10-dihydro-9,10-[3,4]epipyrroloanthracene-12,14-dione], the viability at 1 µM [1, 3] is reported as 35.4%, the viability at 10 µM [1, 4] is reported as 2.3% and the IC50 [2] is reported as 250 nM. For the same compound, the viability at 1 µM [2, 5] was 0.07%, the viability at 10 µM [2, 6] was 1.4% and the melting point was 242 to 243 °C.

Work on `C/C(=C\C12c3ccccc3C(c3ccccc31)C1C(=O)N(c3ccccc3)C(=O)C12)[N+](=O)[O-]` (stereo not shown) [Compound 17a, (E)-9-(2-Nitroprop-1-en-1-yl)-13-phenyl-9,10-dihydro-9,10-[3,4]epipyrroloanthracene-12,14-dione] yielded a viability at 1 µM [1, 3] of 78.3%, a viability at 10 µM [1, 4] of 88.9% and a viability at 1 µM [2, 5] of 79.8%. It also gave a viability at 10 µM [2, 6] of 68.6% and a melting point of 263 to 266 °C.

`O=C1C2C3c4ccccc4C(/C=C/[N+](=O)[O-])(c4ccccc43)C2C(=O)N1c1cccc(Cl)c1` (stereo not shown) [Compound 16k, (E)-13-(3-Chlorophenyl)-9-(2-nitrovinyl)-9,10-dihydro-9,10-[3,4]epipyrroloanthracene-12,14-dione] showed a viability at 1 µM [1, 3] of 69%, a viability at 10 µM [1, 4] of 0% and a viability at 1 µM [2, 5] of 2.7%. It also gave a viability at 10 µM [2, 6] of 0.84% and a melting point of 258 to 261 °C.

Work on `COC(=O)c1ccc(N2C(=O)C3C4c5ccccc5C(/C=C/[N+](=O)[O-])(c5ccccc54)C3C2=O)cc1` (stereo not shown) [Compound 16h, Methyl (E)-4-(9-(2-nitrovinyl)-12,14-dioxo-9,10-dihydro-9,10-[3,4]epipyrroloanthracen-13-yl)benzoate] yielded a viability at 1 µM [1, 3] of 20.8%, a viability at 10 µM [1, 4] of 0.18% and an IC50 [2] of 200 nM. It also gave a viability at 1 µM [2, 5] of 2.3%, a viability at 10 µM [2, 6] of 0.79% and a melting point of 254 to 255 °C.

Work on `C/C(=C\C12c3ccccc3C(Cl)(c3ccccc31)C1C(=O)OC(=O)C12)[N+](=O)[O-]` (stereo not shown) [Compound 13e, (E)-9-Chloro-10-(2-nitroprop-1-en-1-yl)-9,10-dihydro-9,10-[3,4]furanoanthracene-12,14-dione] yielded a viability at 1 µM [1, 3] of 78.2%, a viability at 10 µM [1, 4] of 98.2% and a viability at 1 µM [2, 5] of 83.3%. For the same compound, the viability at 10 µM [2, 6] was 101% and the melting point was 270 to 272 °C.

Work on `CNCCCC12CCC(c3ccccc31)c1ccccc12` [Maprotiline 8, maprotiline, reference compound] yielded a viability at 1 µM ([1]; read-out: DG-75 Cell Viability % 1 μM) of 102%, a viability at 10 µM ([1]; read-out: DG-75 Cell Viability % 10 μM) of 65.1% and a viability at 1 µM ([2]; read-out: MUTU-1 Cell Viability % 1 μM) of 93.1%. The viability at 10 µM ([2]; read-out: MUTU-1 Cell Viability % 10 μM) was 73%.

In the case of `N#CC(C#N)=CC12c3ccccc3C(c3ccccc31)C1C(=O)NC(=O)C12` (stereo not shown) [Compound 23e, 2-((12,14-Dioxo-9,10-[3,4]epipyrroloanthracen-9(10H)-yl)methylene)malononitrile], the viability at 1 µM [1, 3] is reported as 85.7%, the viability at 10 µM [1, 4] is reported as 98.7% and the viability at 1 µM [2, 5] is reported as 82.9%. It also gave a viability at 10 µM [2, 6] of 83.6% and a melting point of 281 to 284 °C.

Work on `O=CC12c3ccccc3C(c3ccccc31)C1C(=O)NC(=O)C12` (stereo not shown) [Compound 21e] yielded a viability at 1 µM [1, 3] of 76%, a viability at 10 µM [1, 4] of 71.2% and a viability at 1 µM [2, 5] of 96.1%. The viability at 10 µM [2, 6] was 95.1%.

`CC/C(=C\C12c3ccccc3C(c3ccccc31)C1C(=O)OC(=O)C12)[N+](=O)[O-]` (stereo not shown) [Compound 13c, (E)-9-(2-Nitrobut-1-en-1-yl)-9,10-dihydro-9,10-[3,4]furanoanthracene-12,14-dione] showed a viability at 1 µM [1, 3] of 68%, a viability at 10 µM [1, 4] of 80.7% and a viability at 1 µM [2, 5] of 64.1%. It also gave a viability at 10 µM [2, 6] of 74.1% and a melting point of 230 to 233 °C.

With `CCOC(=O)C1CC2c3ccccc3C1(/C=C/[N+](=O)[O-])c1ccccc12` (stereo not shown) [Compound 19b, Ethyl (E)-10-(2-nitrovinyl)-9,10-dihydro-9,10-ethanoanthracene-11-carboxylate] the viability at 1 µM [1, 3] was 9.8%, the viability at 10 µM [1, 4] was 13.4% and the viability at 1 µM [2, 5] was 48.9%. It also gave a viability at 10 µM [2, 6] of 0.69%.

With `O=CC12c3ccccc3C(c3ccccc31)C1C(=O)N(c3ccccc3)C(=O)C12` (stereo not shown) [Compound 21f] the viability at 1 µM [1, 3] was 102%, the viability at 10 µM [1, 4] was 72.4% and the viability at 1 µM [2, 5] was 102%. The viability at 10 µM [2, 6] was 77.7%.

Compound `O=CC12c3ccccc3C(c3ccccc31)C1C(=O)OC(=O)C12` (stereo not shown) [Compound 21d] has a viability at 1 µM [1, 3] of 64.8%, a viability at 10 µM [1, 4] of 64.7% and a viability at 1 µM [2, 5] of 87.4%. It also gave a viability at 10 µM [2, 6] of 88.4%.

Compound `CN(C)CCCN1c2ccccc2Sc2ccc(Cl)cc21` [Compound 5] has a viability at 1 µM [1, 3] of 6 to 28% and a viability at 0.5 µM ([1]; read-out: viable cells in DG-75 at 0.5 µM, 0.5 µM, 48 h) of 18 to 57%.

`O=C1OC(=O)C2C1C1c3ccccc3C2(C(=O)O)c2ccccc21` (stereo not shown) [Compound 21g] showed a viability at 1 µM [1, 3] of 93.1%, a viability at 10 µM [1, 4] of 65.4% and a viability at 1 µM [2, 5] of 99.2%. The viability at 10 µM [2, 6] was 88.8%.

`O=C1NC(=O)C2C1C1c3ccccc3C2(C(=O)O)c2ccccc21` (stereo not shown) [Compound 21h] gave a viability at 1 µM [1, 3] of 86.3%, a viability at 10 µM [1, 4] of 73.1% and a viability at 1 µM [2, 5] of 92.6%. For the same compound, the viability at 10 µM [2, 6] was 92%.

With `N/N=C/C12c3ccccc3C(c3ccccc31)C1C(=O)N(c3ccccc3)C(=O)C12` (stereo not shown) [Compound 23h, (E)-9-(Hydrazonomethyl)-13-phenyl-9,10-dihydro-9,10-[3,4]epipyrroloanthracene-12,14-dione] the viability at 1 µM [1, 3] was 85.8%, the viability at 10 µM [1, 4] was 87.4% and the viability at 1 µM [2, 5] was 91.1%. The viability at 10 µM [2, 6] was 78%.

`COC(=O)C1CC2c3ccccc3C1(/C=C/[N+](=O)[O-])c1ccccc12` (stereo not shown) [Compound 19c, Methyl (E)-10-(2-nitrovinyl)-9,10-dihydro-9,10-ethanoanthracene-11-carboxylate] gave a viability at 1 µM [1, 3] of 92.2%, a viability at 10 µM [1, 4] of 1.4% and an IC50 [2] of 540 nM. For the same compound, the viability at 1 µM [2, 5] was 15.6% and the viability at 10 µM [2, 6] was 8.4%.

`O=C1OC(=O)C2C3c4ccccc4C(c4ccccc43)C12` (stereo not shown) [Compound 21a] showed a viability at 1 µM [1, 3] of 91.4%, a viability at 10 µM [1, 4] of 69.9% and a viability at 1 µM [2, 5] of 103%. For the same compound, the viability at 10 µM [2, 6] was 93.1%.

`O=C1C2C3c4ccccc4C(C(=O)O)(c4ccccc43)C2C(=O)N1c1ccccc1` (stereo not shown) [Compound 21i] gave a viability at 1 µM [1, 3] of 73.2%, a viability at 10 µM [1, 4] of 67.5% and a viability at 1 µM [2, 5] of 103%. For the same compound, the viability at 10 µM [2, 6] was 92.5%.

From paper PMC7168933, “Design, Synthesis and Biochemical Evaluation of Novel Ethanoanthracenes and Related Compounds to Target Burkitt’s Lymphoma” (Pharmaceuticals, 2020)
